Measured values published in patent US6500610B1, “Methods for identifying compounds for inhibiting of neoplastic lesions, and pharmaceutical compositions containing such compounds” (Cell Pathways, INC, priority 1997, dated 2002).
Like-named read-outs stand apart in the source and are kept apart here.

Tests used:
[1] = biological target: T1, cyclooxygenase (Type 1), COX-I (Ovis aries, UniProt P05979); assay: COX inhibition assay, purified cyclooxygenase
T1 sequence (P05979 25-600): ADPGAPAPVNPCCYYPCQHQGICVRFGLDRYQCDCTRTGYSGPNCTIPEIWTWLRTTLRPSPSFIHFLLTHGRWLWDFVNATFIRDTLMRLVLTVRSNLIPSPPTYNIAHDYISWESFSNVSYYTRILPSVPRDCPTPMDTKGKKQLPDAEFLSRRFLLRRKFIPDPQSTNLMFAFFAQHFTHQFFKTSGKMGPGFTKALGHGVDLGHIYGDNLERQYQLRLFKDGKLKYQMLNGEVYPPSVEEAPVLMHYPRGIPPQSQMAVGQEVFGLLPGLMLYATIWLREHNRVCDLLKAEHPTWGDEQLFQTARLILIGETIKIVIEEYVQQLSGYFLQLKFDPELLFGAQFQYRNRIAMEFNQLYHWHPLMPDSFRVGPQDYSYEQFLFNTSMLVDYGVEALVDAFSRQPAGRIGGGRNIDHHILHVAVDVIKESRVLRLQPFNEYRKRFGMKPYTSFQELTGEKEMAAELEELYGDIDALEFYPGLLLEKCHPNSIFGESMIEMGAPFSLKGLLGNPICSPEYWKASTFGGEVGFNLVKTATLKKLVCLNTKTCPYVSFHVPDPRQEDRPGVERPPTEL

[2] = system: SW-480 colon adenocarcinoma cells
[3] = system: cGMP PDE from human colon HT-29 cultured tumor cells; assay: cGMP PDE inhibition assay; assay type: biochemical
HT-29 cells = assay: Growth inhibition, SRB assay, HT-29; assay type: cell-based, human
[4] = system: SW-480 colon adenocarcinoma cells; assay: Apoptosis fold induction / DNA fragmentation protocol
[5] = biological target: T2, cGMP binding sites of the GST-cGB-PDE5 Protein (Homo sapiens, UniProt O76074); assay: cGMP binding assay with GST-cGB-PDE5 fusion protein; conditions: 3H-cGMP 2 μM
T2 construct: made in house; host or cells: E. coli BL21 (DE3)

[6] = biological target: T3, novel cGMP-specific PDE (Peak B) from SW480 cells (Homo sapiens, UniProt O00408); assay: cGMP hydrolysis inhibition, novel PDE peak B (Section IA) from SW480; assay type: biochemical; conditions: peak B from SW480, FPLC, 0.25 μM cGMP
T3 construct: IC50 Peak B (μM)

[7] = system: novel Peak B from HTB-26 breast cancer cell line; assay: cGMP PDE activity of peak B from HTB-26; assay type: biochemical; conditions: peak B from HTB-26, 0.25 μM cGMP
Procedure: (§1) The novel Peak B was also isolated from two other neoplastic cell lines, a breast cancer cell line, HTB-26 and a prostate cancer cell line, LnCAP by a procedure similar to the one above used to isolate it from SW480. The protocol was modified in several respects. To provide even greater reproducibility to allow comparison of different cell lines, a Pharmacia AKTA FPLC was used to control sample loading and elution on an 18 mL DEAE TrisAcryl M column. SW840 was run by this same procedure multiple times to provide a reference of peak B. 200-400 million cells of SW480 were used for the profiles. 70 million cells of LnCAP were used for a profile (see FIGS. 22 and 23), and in a separate experiment 32 million cells of HTB-26 were used for a profile (see FIGS. 20 and 21). After re-suspending cells in homogenization buffer, samples were manually homogenized. FPLC buffer A was 8 mM TRIS-acetate, 5 mM Mg acetate, 0.1 mM EDTA, pH 7.5 and buffer B was 8 mM TRIS-acetate, 5 mM Mg acetate, 0.1 mM EDTA, 1 M Na acetate, pH 7.5. Supernatants were loaded onto the column at 1 mL per minute, followed by a wash with 60 mL buffer A at 1 mL per minute. A gradient was run from 0-15% buffer B in 60 mL, 15-50% buffer B in 60 mL, and 50-100% buffer B in 16 mL. During the gradient 1.5 mL fractions were collected.

[8] = system: novel Peak B from LnCAP prostate cancer cell line; assay: cGMP PDE activity of peak B from LnCAP; assay type: biochemical; conditions: 0.25 μM cGMP
Procedure: as §1

β-catenin in SW480 cells = assay: Western blot of β-catenin in SW480 cells; assay type: cell-based, human; conditions: SW480, 200, 400 or 600 μM, 48 hours
Procedure: SW480 cells treated with exisulind as described previously are harvested from the microfuge tubes by rinsing once with ice-cold PBS. The cells are lysed by modified RIPA buffer for 15 minutes with agitation. The cell lysate is spun down in a cold room. The supernatants are transferred to fresh microcentrifuge tubes immediately after spinning. BioRad DC Protein Assay (Temecula, Calif.) is performed to determine the protein concentrations in samples. The samples are normalized for protein concentration, as described above.
50 μg of each sample is loaded to 10% SDS gel. SDS-PAGE is performed, and the proteins then are transferred to a nitrocellulose membrane. The blotted nitrocellulose membrane are blocked in freshly prepared TBST containing 5% nonfat dry milk for one hour at room temperature with constant agitation.
SW480 cells were treated with exisulind or vehicle (0.1% DMSO) for 48 hours. 50 μg supernatant of each cell lysates were loaded to 10% SDS-gel and blotted to nitrocellulose membrane, and the membrane was probed with rabbit-anti-β-catenin and rabbit anti-PKG antibodies.
This observation was made by culturing SW480 cells with either 200, 400 or 600 μM exisulind or vehicle (0.1% DMSO). The cells are harvested 48 hours post treatment and processed for immunoblotting. Immuno-reactive protein can be detected by Western blot. […]

[9] = system: protein kinase G (PKG) activity in HCT116 colon cancer cells; assay: PKG activity assay of lysates of drug-treated HCT116 cells; assay type: cell-based
Text: To test the effect of cGMP-specific PDE inhibition on neoplasia containing the β-catenin mutation, HCT116 colon cancer cells were employed. HCT116 is known to contain the β-catenin mutation, but is known not to contain the APC mutation.
The same procedure is used to grow the HCT116 cells as is used in the SW480 procedure described above. In this experiment, only exisulind and controls were used.

[10] = system: premalignant lesions in mouse mammary gland organ culture; assay: Mammary gland organ culture model; assay type: cell-based
Text: Test compounds identified by the above methods can be tested for antineoplastic activity by their ability to inhibit the incidence of pre-neoplastic lesions in a mammary gland organ culture system. This mouse mammary gland organ culture technique has been successfully used by other investigators to study the effects of known antineoplastic agents such as certain NSAIDs, retinoids, tamoxifen, selenium, and certain natural products, and is useful for validation of the screening method of the present invention.
For example, female BALB/c mice can be treated with a combination of estradiol and progesterone daily, in order to prime the glands to be responsive to hormones in vitro. The animals are sacrificed, and thoracic mammary glands are excised aseptically and incubated for ten days in growth media supplemented with insulin, prolactin, hydrocortisone, and aldosterone. DMBA (7,12 dimethylbenz(a)anthracene) is added to medium to induce the formation of premalignant lesions. Fully developed glands are then deprived of prolactin, hydrocortisone, and aldosterone, resulting in the regression of the glands but not the pre-malignant lesions.
The test compound is dissolved in DMSO and added to the culture media for the duration of the culture period. At the end of the culture period, the glands are fixed in 10% formalin, stained with alum carmine, and mounted on glass slides. The incidence of forming mammary lesions is the ratio of the glands with mammary lesions to […]. The incidence of mammary lesions in test compound treated glands is compared with that of the untreated glands.
The extent of the area occupied by the mammary lesions can be quantitated by projecting an image of the gland onto a digitation pad. The area covered by the gland is traced on the pad and considered as 100% of the area. The space covered by each of the non-regressed structures is also outlined on the digitization pad and quantitated by the computer.
Mammary gland organ culture experiment were performed as previously described (Mehta and Moon, Cancer Research, 46:5832-5835, 1986). […]

patients = assay: Safety evaluation in exisulind clinical trials; assay type: in vivo
Procedure: In these exisulind trials and several others involving the drug in other indications, safety was evaluated by monitoring adverse events (AEs), clinical laboratory tests (hematology, serum chemistry, and urinalysis), vital signs (blood pressure, pulse rate, respiratory rate, temperature, and weight), physical examination, and upper endoscopy.

## CCN(CC)CCSC12CC(=O)OC1(C)/C(=C/c1ccc(S(C)(=O)=O)cc1)c1ccc(F)cc12 (racemic) [A, rac-threo-(E)-1-(N,N′-diethylaminoethanethio)-1-(butan-1′,4′-olido)-[3′,4′:1,2]-6-fluoro-2-methyl-3-(p-methylsulfonylbenzylidene)-indan]
[1]; 100 μM
  COX % Inhibition at 100 μM: <25%
[2]
  Fold induction at 100 μM (apoptosis): <2.0 fold
[3]
  cGMP PDE % Inhibition at 10 μM: <25%
HT-29 cells
  Growth % Inhibition at 100 μM: 68%

## CCCCCC[C@@H]([C@@H](C)O)n1cnc2c(N)ncnc21 (racemic) [EHNA]
[4]
  Fold induction at 100 μM (apoptosis): <2.0 fold

## O=C([O-])C1CCN(c2nc(NCc3ccc4c(c3)OCO4)c3cc(Cl)ccc3n2)CC1.[Na+] [Compound E4021]
[5]
  competition with cGMP in binding of GST-cGB-PDE5: None of the PDE5 inhibitors showed any competition with cGMP
[6]
  sensitivity of peak B cGMP PDE activity: resistant to 100 nM E4021
HT-29 cells
  Growth % Inhibition at 100 μM: <50%
[7]
  sensitivity of peak B cGMP PDE activity: resistant to 100 nM E4021
[8]
  sensitivity of peak B cGMP PDE activity: resistant to 100 nM E4021

## CC1=C(CC(=O)O)c2cc(F)ccc2/C1=C\c1ccc(S(C)(=O)=O)cc1 [Exisulind, 5-fluoro-2-methyl-1-(p-methylsulfonylbenzylidene)-3-indenylacetic acid]
β-catenin in SW480 cells
  reduction of expression of β-catenin: 50%
[5]
  competition with cGMP in binding of GST-cGB-PDE5: None of the PDE5 inhibitors showed any competition with cGMP
[1]
  IC50: > 10 mM
[3]
  cGMP PDE % Inhibition at 10 μM: 39%
[9]
  PKG activity relative to control: PKG activation occurred
[10]
  inhibition of formation of premalignant lesions: effectively inhibit the formation of premalignant lesions
patients; human, in vivo
  dose-limiting adverse events: elevations in liver function tests (LFTs)
  safety issues in clinical trials: No outstanding safety issues have been demonstrated
patients; polyp and normal colonic tissues in APC patients
  apoptosis rates in paired biopsies: increased apoptosis rates in polyp, but not normal colonic tissues
